Laboratory results taken from the NIST ThermoML archive (doi:10.1021/je7003929).

Test: xn = mol fraction of the nth substance listed
Conditions: Liquid, Vibrating tube method

c1ccc2sccc2c1 [benzo[b]thiophene] + CCCCCC
Conditions | mass density [kg/m3]
352.41 K, 1015 kPa, x2 = 0.0629 | 1076.7
352.41 K, 2020 kPa, x2 = 0.0629 | 1077.4
352.41 K, 3016 kPa, x2 = 0.0629 | 1078.1
352.41 K, 4038 kPa, x2 = 0.0629 | 1078.8
352.41 K, 5000 kPa, x2 = 0.0629 | 1079.5
352.41 K, 6001 kPa, x2 = 0.0629 | 1080.4
352.41 K, 7017 kPa, x2 = 0.0629 | 1081.1
352.41 K, 8008 kPa, x2 = 0.0629 | 1082
352.41 K, 9017 kPa, x2 = 0.0629 | 1082.6
352.41 K, 10026 kPa, x2 = 0.0629 | 1083.4
352.41 K, 11018 kPa, x2 = 0.0629 | 1084.1
352.41 K, 12014 kPa, x2 = 0.0629 | 1084.7
352.41 K, 13014 kPa, x2 = 0.0629 | 1085.4
352.41 K, 14022 kPa, x2 = 0.0629 | 1086.2
352.41 K, 15028 kPa, x2 = 0.0629 | 1086.8
352.41 K, 16020 kPa, x2 = 0.0629 | 1087.6
352.41 K, 17023 kPa, x2 = 0.0629 | 1088.2
352.41 K, 18015 kPa, x2 = 0.0629 | 1088.8
352.41 K, 19016 kPa, x2 = 0.0629 | 1089.5
352.41 K, 20019 kPa, x2 = 0.0629 | 1090.2
352.53 K, 1025 kPa, x2 = 0.9432 | 630.4
352.53 K, 1026 kPa, x2 = 0.7491 | 725.1
352.53 K, 2023 kPa, x2 = 0.9432 | 632.1
352.53 K, 2026 kPa, x2 = 0.7491 | 726.5
352.53 K, 3024 kPa, x2 = 0.7491 | 727.8
352.53 K, 3030 kPa, x2 = 0.9432 | 633.8
352.53 K, 4018 kPa, x2 = 0.9432 | 635.4
352.53 K, 4034 kPa, x2 = 0.7491 | 729.2
352.53 K, 5014 kPa, x2 = 0.7491 | 730.5
352.53 K, 5021 kPa, x2 = 0.9432 | 637
352.53 K, 6018 kPa, x2 = 0.9432 | 638.5
352.53 K, 6040 kPa, x2 = 0.7491 | 731.8
352.53 K, 7010 kPa, x2 = 0.9432 | 639.9
352.53 K, 7028 kPa, x2 = 0.7491 | 733
352.53 K, 8017 kPa, x2 = 0.7491 | 734.3
352.53 K, 8018 kPa, x2 = 0.9432 | 641.4
352.53 K, 9003 kPa, x2 = 0.7491 | 735.5
352.53 K, 9044 kPa, x2 = 0.9432 | 642.8
352.53 K, 10008 kPa, x2 = 0.7491 | 736.7
352.53 K, 10011 kPa, x2 = 0.9432 | 644.2
352.53 K, 11016 kPa, x2 = 0.7491 | 737.9
352.53 K, 11022 kPa, x2 = 0.9432 | 645.5
352.53 K, 12002 kPa, x2 = 0.7491 | 739
352.53 K, 12013 kPa, x2 = 0.9432 | 646.9
352.53 K, 13005 kPa, x2 = 0.9432 | 648.2
352.53 K, 13020 kPa, x2 = 0.7491 | 740.2
352.53 K, 14000 kPa, x2 = 0.9432 | 649.5
352.53 K, 14016 kPa, x2 = 0.7491 | 741.3
352.53 K, 15021 kPa, x2 = 0.9432 | 650.8
352.53 K, 15037 kPa, x2 = 0.7491 | 742.5
352.53 K, 16022 kPa, x2 = 0.9432 | 652
352.53 K, 16035 kPa, x2 = 0.7491 | 743.6
352.53 K, 17001 kPa, x2 = 0.9432 | 653.2
352.53 K, 17020 kPa, x2 = 0.7491 | 744.6
352.53 K, 18013 kPa, x2 = 0.9432 | 654.4
352.53 K, 18020 kPa, x2 = 0.7491 | 745.7
352.53 K, 19007 kPa, x2 = 0.9432 | 655.6
352.53 K, 19008 kPa, x2 = 0.7491 | 746.7
352.53 K, 20019 kPa, x2 = 0.7491 | 747.8
352.53 K, 20039 kPa, x2 = 0.9432 | 656.7
352.63 K, 1037 kPa, x2 = 0.4495 | 874.2
352.63 K, 2029 kPa, x2 = 0.4495 | 875.3
352.63 K, 3026 kPa, x2 = 0.4495 | 876.4
352.63 K, 4032 kPa, x2 = 0.4495 | 877.5
352.63 K, 5015 kPa, x2 = 0.4495 | 878.5
352.63 K, 6024 kPa, x2 = 0.4495 | 879.5
352.63 K, 7028 kPa, x2 = 0.4495 | 880.5
352.63 K, 8017 kPa, x2 = 0.4495 | 881.5
352.63 K, 9003 kPa, x2 = 0.4495 | 882.5
352.63 K, 10022 kPa, x2 = 0.4495 | 883.5
352.63 K, 11024 kPa, x2 = 0.4495 | 884.5
352.63 K, 12013 kPa, x2 = 0.4495 | 885.4
352.63 K, 13038 kPa, x2 = 0.4495 | 886.4
352.63 K, 14000 kPa, x2 = 0.4495 | 887.3
352.63 K, 15021 kPa, x2 = 0.4495 | 888.2
352.63 K, 16012 kPa, x2 = 0.4495 | 889.1
352.63 K, 17010 kPa, x2 = 0.4495 | 890
352.63 K, 18015 kPa, x2 = 0.4495 | 890.9
352.63 K, 19022 kPa, x2 = 0.4495 | 891.8
352.63 K, 20005 kPa, x2 = 0.4495 | 892.7
362.31 K, 1028 kPa, x2 = 0.9432 | 620.3
362.31 K, 2031 kPa, x2 = 0.9432 | 622.2
362.31 K, 3031 kPa, x2 = 0.9432 | 624
362.31 K, 4012 kPa, x2 = 0.9432 | 625.7
362.31 K, 5026 kPa, x2 = 0.9432 | 627.4
362.31 K, 6013 kPa, x2 = 0.9432 | 629.1
362.31 K, 7022 kPa, x2 = 0.9432 | 630.7
362.31 K, 8014 kPa, x2 = 0.9432 | 632.3
362.31 K, 9000 kPa, x2 = 0.9432 | 633.7
362.31 K, 10011 kPa, x2 = 0.9432 | 635.3
362.31 K, 11007 kPa, x2 = 0.9432 | 636.7
362.31 K, 12007 kPa, x2 = 0.9432 | 638.2
362.31 K, 13008 kPa, x2 = 0.9432 | 639.6
362.31 K, 14024 kPa, x2 = 0.9432 | 640.9
362.31 K, 15002 kPa, x2 = 0.9432 | 642.3
362.31 K, 16016 kPa, x2 = 0.9432 | 643.6
362.31 K, 17000 kPa, x2 = 0.9432 | 644.9
362.31 K, 18008 kPa, x2 = 0.9432 | 646.3
362.31 K, 19018 kPa, x2 = 0.9432 | 647.5
362.31 K, 20028 kPa, x2 = 0.9432 | 648.8
362.33 K, 1020 kPa, x2 = 0.7491 | 715.3
362.33 K, 2034 kPa, x2 = 0.7491 | 716.8
362.33 K, 3013 kPa, x2 = 0.7491 | 718.3
362.33 K, 4007 kPa, x2 = 0.7491 | 719.7
362.33 K, 5015 kPa, x2 = 0.7491 | 721.2
362.33 K, 6018 kPa, x2 = 0.7491 | 722.5
362.33 K, 7015 kPa, x2 = 0.7491 | 723.9
362.33 K, 8017 kPa, x2 = 0.7491 | 725.2
362.33 K, 9024 kPa, x2 = 0.7491 | 726.5
362.33 K, 10010 kPa, x2 = 0.7491 | 727.8
362.33 K, 10996 kPa, x2 = 0.7491 | 729.1
362.33 K, 12027 kPa, x2 = 0.7491 | 730.4
362.33 K, 13022 kPa, x2 = 0.7491 | 731.6
362.33 K, 14016 kPa, x2 = 0.7491 | 732.8
362.33 K, 15023 kPa, x2 = 0.7491 | 734
362.33 K, 16012 kPa, x2 = 0.7491 | 735.1
362.33 K, 17011 kPa, x2 = 0.7491 | 736.3
362.33 K, 18012 kPa, x2 = 0.7491 | 737.4
362.33 K, 19030 kPa, x2 = 0.7491 | 738.6
362.33 K, 20017 kPa, x2 = 0.7491 | 739.7
362.5 K, 1028 kPa, x2 = 0.4495 | 864.8
362.5 K, 2025 kPa, x2 = 0.4495 | 866
362.5 K, 3020 kPa, x2 = 0.4495 | 867.1
362.5 K, 4000 kPa, x2 = 0.4495 | 868.2
362.5 K, 5045 kPa, x2 = 0.4495 | 869.3
362.5 K, 6017 kPa, x2 = 0.4495 | 870.4
362.5 K, 7018 kPa, x2 = 0.4495 | 871.5
362.5 K, 8013 kPa, x2 = 0.4495 | 872.5
362.5 K, 9024 kPa, x2 = 0.4495 | 873.6
362.5 K, 10011 kPa, x2 = 0.4495 | 874.6
362.5 K, 11008 kPa, x2 = 0.4495 | 875.6
362.5 K, 12025 kPa, x2 = 0.4495 | 876.6
362.5 K, 13004 kPa, x2 = 0.4495 | 877.6
362.5 K, 14014 kPa, x2 = 0.4495 | 878.6
362.5 K, 15011 kPa, x2 = 0.4495 | 879.6
362.5 K, 16027 kPa, x2 = 0.4495 | 880.6
362.5 K, 17017 kPa, x2 = 0.4495 | 881.5
362.5 K, 18030 kPa, x2 = 0.4495 | 882.5
362.5 K, 19022 kPa, x2 = 0.4495 | 883.4
362.5 K, 20002 kPa, x2 = 0.4495 | 884.3
